Laboratory results as given in paper PMC5826148, “Whole-Cell Screen of Fragment Library Identifies Gut Microbiota Metabolite Indole Propionic Acid as Antitubercular” (Antimicrobial Agents and Chemotherapy, 2018).
Values after ≈ are worked out from the molar mass of the structure shown. Read-outs that look alike come from different tables or passages of the source.

Key:
M. tuberculosis H37Rv [1] = assay: M. tuberculosis growth inhibition dose-response (MIC50), turbidity readout; type: cell-based, Mycobacterium tuberculosis; details: Mycobacterium tuberculosis, 240 h, read-out: Antibacterial activity (MIC50) M. tuberculosis
M. tuberculosis H37Rv [2] = assay: Bactericidal activity, CFU enumeration on agar after treatment; type: cell-based, Mycobacterium tuberculosis; details: Mycobacterium tuberculosis, H37RV, read-out: Bactericidal activity (log reduction) at 1 mM
M. tuberculosis = assay: Growth inhibition in acidic medium (pH 6.2); type: cell-based, Mycobacterium tuberculosis
M. bovis BCG Pasteur = assay: microbe, parasite or virus in culture; type: cell-based; details: Mycobacterium tuberculosis variant bovis BCG, BCG, read-out: Antibacterial activity (MIC50) M. bovis BCG
M. smegmatis = assay: Spectrum of activity: M. smegmatis growth inhibition; type: cell-based; details: Mycolicibacterium smegmatis, 24 h, read-out: Antibacterial activity (MIC50) M. smegmatis
M. avium = assay: Spectrum of activity: M. avium growth inhibition; type: cell-based; details: Mycobacterium avium, 96 h, read-out: Antibacterial activity (MIC50) M. avium
M. abscessus = assay: Spectrum of activity: M. abscessus growth inhibition; type: cell-based; details: Mycobacteroides abscessus, 72 h, read-out: Antibacterial activity (MIC50) M. abscessus
Staphylococcus aureus = assay: Spectrum of activity: S. aureus growth inhibition; type: cell-based; details: Staphylococcus aureus, read-out: Antibacterial activity (MIC50) S. aureus
Escherichia coli = assay: Spectrum of activity: E. coli growth inhibition; type: cell-based; details: Escherichia coli, read-out: Antibacterial activity (MIC50) E. coli
[3] = test system: human red blood cells (RBCs); assay: Red blood cell lysis assay; details: hemolysis
[4] = Cytotoxicity assay, THP-1 cells (CellTiter 96 AQueous One); details: human
[5] = Cytotoxicity assay, HepG2 cells (CellTiter 96 AQueous One); details: human, HepG2 cells
[6] = M. tuberculosis, 1 mM, log CFU/ml reduction from initial inoculum
[7] = Mycobacterium tuberculosis, pH 6.2; read-out: Activity (MIC50) in acidic medium (pH 6.2)
[8] = Mycobacterium tuberculosis, pH 6.2, read-out: Activity (MIC50) in acidic medium (pH 6.2)

Structure (SMILES)	MIC50 (M. tuberculosis H37Rv [1]; H37Rv, 10 days)	log reduction at 1000 µM (M. tuberculosis H37Rv [2]; [6])	MIC50 (M. tuberculosis; [7])	MIC50 (M. bovis BCG Pasteur)	MIC50 (M. smegmatis; 1 day)	MIC50 (M. avium; 4 days)	MIC50 (M. abscessus; 3 days)	MIC50 (Staphylococcus aureus; LB medium, overnight)	MIC50 (Escherichia coli; LB medium, overnight)	RBCs HC50 [3]	CC50 at 24 h [4]	CC50 at 24 h [5]	MIC50 (M. tuberculosis H37Rv [1]; H37RV)	log reduction at 1000 µM (M. tuberculosis H37Rv [2])	MIC50 (M. tuberculosis; [8])	MIC50 (M. smegmatis)	MIC50 (M. avium)	MIC50 (M. abscessus)	MIC50 (Staphylococcus aureus)	MIC50 (Escherichia coli)
Cc1cc(C(=O)O)c(C)n1Cc1cccs1 [Fragment F16, 2,5-Dimethyl-1-(2-thienylmethyl)-1H-pyrrole-3-carboxylic acid]	247 µM (≈ 58.1 µg/mL)	1.89	345 µM (≈ 81.2 µg/mL)	> 500 µM	> 500 µM	> 500 µM	> 500 µM	> 500 µM	> 500 µM	>1,000 μM	724 µM	766 µM	–	–	–	–	–	–	–	–
Cc1ccc2c(c1)N(CCO)C(C)(C)CC2C.O (stereo not drawn) [Fragment F18, 2-(2,2,4,7-Tetramethyl-1,2,3,4-tetrahydroquinolin-1-yl)ethan-1-ol hydrate]	–	–	–	87 µM	–	–	–	–	–	471 µM	–	–	268 µM	1.67	86 µM	205 µM	198 µM	247 µM	189 µM	> 500 µM
O=C(O)c1cc2ccccc2cn1 [Fragment F14, Isoquinoline-3-carboxylic acid]	–	–	–	193 µM (≈ 33.4 µg/mL)	–	–	–	–	–	>1,000 μM	–	–	235 µM (≈ 40.7 µg/mL)	1.97	87 µM (≈ 15.1 µg/mL)	176 µM (≈ 30.5 µg/mL)	473 µM (≈ 81.9 µg/mL)	> 500 µM	304 µM (≈ 52.6 µg/mL)	193 µM (≈ 33.4 µg/mL)
N#Cc1ccc(O)cc1F [Fragment F22, 2-Fluoro-4-hydroxybenzonitrile]	300 µM (≈ 41.1 µg/mL)	1.6	140 µM (≈ 19.2 µg/mL)	420 µM (≈ 57.6 µg/mL)	487 µM (≈ 66.8 µg/mL)	317 µM (≈ 43.5 µg/mL)	401 µM (≈ 55 µg/mL)	343 µM (≈ 47 µg/mL)	202 µM (≈ 27.7 µg/mL)	>1,000 μM	677 µM	879 µM	–	–	–	–	–	–	–	–
O=C(O)c1ccc(-c2ccsc2)cc1 [Fragment F26, 4-(3-Thienyl)benzoic acid]	320 µM (≈ 65.4 µg/mL)	1.35	125 µM (≈ 25.5 µg/mL)	> 500 µM	> 500 µM	> 500 µM	497 µM (≈ 102 µg/mL)	> 500 µM	> 500 µM	>1,000 μM	978 µM	944 µM	–	–	–	–	–	–	–	–
Oc1ccc(Oc2ccccc2)cc1 [Fragment F29, 4-Phenoxyphenol]	439 µM (≈ 81.7 µg/mL)	1.09	118 µM (≈ 22 µg/mL)	387 µM (≈ 72.1 µg/mL)	250 µM (≈ 46.6 µg/mL)	411 µM (≈ 76.5 µg/mL)	267 µM (≈ 49.7 µg/mL)	348 µM (≈ 64.8 µg/mL)	201 µM (≈ 37.4 µg/mL)	912 µM	145 µM	202 µM	–	–	–	–	–	–	–	–
COC(=O)c1sc2ccccc2c1O [Fragment F9, Methyl 3-hydroxy-1-benzo thiophene-2-carboxylate]	142 µM (≈ 29.6 µg/mL)	2.09	240 µM (≈ 50 µg/mL)	> 500 µM	> 500 µM	> 500 µM	> 500 µM	217 µM (≈ 45.2 µg/mL)	> 500 µM	>1,000 μM	–	–	–	–	–	–	–	–	–	–
NCc1cccc(N2CCCCC2)n1 [Fragment F17, [6-(Piperidin-1-yl)pyridin-2-yl]methanamine]	250 µM (≈ 47.8 µg/mL)	3.07	245 µM (≈ 46.9 µg/mL)	345 µM (≈ 66 µg/mL)	> 500 µM	271 µM (≈ 51.8 µg/mL)	> 500 µM	104 µM (≈ 19.9 µg/mL)	> 500 µM	>1,000 μM	489 µM	455 µM	–	–	–	–	–	–	–	–
O=C(O)c1ccc(-c2cccs2)s1 [Fragment F20, [2,2′-Bithiophene]-5-carboxylic acid]	271 µM (≈ 57 µg/mL)	1.98	170 µM (≈ 35.7 µg/mL)	457 µM (≈ 96.1 µg/mL)	289 µM (≈ 60.8 µg/mL)	> 500 µM	267 µM (≈ 56.1 µg/mL)	> 500 µM	> 500 µM	>1,000 μM	974 µM	765 µM	–	–	–	–	–	–	–	–
